{
  "source": "PubChem BioAssay AID1259407",
  "about": "(Chemical Carcinogenesis Research Information System (CCRIS), 2018)",
  "test_system": "CCRIS mutagenicity, Ames/micronucleus/aberration tests",
  "assay": "CCRIS mutagenicity studies",
  "key": {"[1]": {"conditions": "Test System: AMES SALMONELLA TYPHIMURIUM, Strain/Indicator: TA98, Metabolic Activation: NONE, Method: STANDARD PLATE"}, "[2]": {"conditions": "Test System: AMES SALMONELLA TYPHIMURIUM, Strain/Indicator: TA100, Metabolic Activation: NONE, Method: STANDARD PLATE"}, "[3]": {"conditions": "Test System: AMES SALMONELLA TYPHIMURIUM, Strain/Indicator: TA1537, Metabolic Activation: NONE, Method: STANDARD PLATE"}},
  "note": "“Also recorded” adds a separate entry of the source. Active and inactive are the calls of the source. The rule behind the calls is not given here.",
  "data": [
    {"compound": "O=C1NC(=O)C(c2ccccc2)(c2ccc(O)cc2)N1", "note": "(centres undefined)", "values": [
      {"measurement": "mutagenic call", "setting": "Test System: AMES SALMONELLA TYPHIMURIUM, Strain/Indicator: TA97, Metabolic Activation: NONE, Method: STANDARD PLATE", "value": "inactive; negative"},
      {"measurement": "mutagenic call", "setting": "Test System: AMES SALMONELLA TYPHIMURIUM, Strain/Indicator: TA97, Metabolic Activation: RAT, LIVER, S-9, 3-METHYLCHOLANTHRENE, Method: PREINCUBATION (10, 20 OR 30 MIN)", "value": "inactive; negative"},
      {"measurement": "mutagenic call", "setting": "Test System: AMES SALMONELLA TYPHIMURIUM, Strain/Indicator: TA97, Metabolic Activation: RAT, LIVER, S-9, 3-METHYLCHOLANTHRENE, Method: STANDARD PLATE", "value": "inactive; negative"},
      {"measurement": "mutagenic call", "setting": "Test System: AMES SALMONELLA TYPHIMURIUM, Strain/Indicator: TA97, Metabolic Activation: RAT, LIVER, S-9, AROCLOR 1254, Method: PREINCUBATION (10, 20 OR 30 MIN)", "value": "inactive; negative"},
      {"measurement": "mutagenic call", "setting": "Test System: AMES SALMONELLA TYPHIMURIUM, Strain/Indicator: TA97, Metabolic Activation: RAT, LIVER, S-9, AROCLOR 1254, Method: STANDARD PLATE", "value": "inactive; negative"},
      {"measurement": "mutagenic call", "setting": "Test System: AMES SALMONELLA TYPHIMURIUM, Strain/Indicator: TA97, Metabolic Activation: RAT, LIVER, S-9, PHENOBARBITONE, Method: PREINCUBATION (10, 20 OR 30 MIN)", "value": "inactive; negative"},
      {"measurement": "mutagenic call", "setting": "Test System: AMES SALMONELLA TYPHIMURIUM, Strain/Indicator: TA97, Metabolic Activation: RAT, LIVER, S-9, PHENOBARBITONE, Method: STANDARD PLATE", "value": "inactive; negative"},
      {"measurement": "mutagenic call", "setting": "[1]", "value": "inactive; negative"},
      {"measurement": "mutagenic call", "setting": "Test System: AMES SALMONELLA TYPHIMURIUM, Strain/Indicator: TA98, Metabolic Activation: RAT, LIVER, S-9, 3-METHYLCHOLANTHRENE, Method: STANDARD PLATE", "value": "inactive; negative"},
      {"measurement": "mutagenic call", "setting": "Test System: AMES SALMONELLA TYPHIMURIUM, Strain/Indicator: TA98, Metabolic Activation: RAT, LIVER, S-9, AROCLOR 1254, Method: STANDARD PLATE", "value": "inactive; negative"},
      {"measurement": "mutagenic call", "setting": "Test System: AMES SALMONELLA TYPHIMURIUM, Strain/Indicator: TA98, Metabolic Activation: RAT, LIVER, S-9, PHENOBARBITONE, Method: STANDARD PLATE", "value": "inactive; negative"},
      {"measurement": "mutagenic call", "setting": "[2]", "value": "inactive; negative"},
      {"measurement": "mutagenic call", "setting": "Test System: AMES SALMONELLA TYPHIMURIUM, Strain/Indicator: TA100, Metabolic Activation: RAT, LIVER, S-9, 3-METHYLCHOLANTHRENE, Method: STANDARD PLATE", "value": "inactive; negative"},
      {"measurement": "mutagenic call", "setting": "Test System: AMES SALMONELLA TYPHIMURIUM, Strain/Indicator: TA100, Metabolic Activation: RAT, LIVER, S-9, AROCLOR 1254, Method: STANDARD PLATE", "value": "inactive; negative"},
      {"measurement": "mutagenic call", "setting": "Test System: AMES SALMONELLA TYPHIMURIUM, Strain/Indicator: TA100, Metabolic Activation: RAT, LIVER, S-9, PHENOBARBITONE, Method: STANDARD PLATE", "value": "inactive; negative"},
      {"measurement": "mutagenic call", "setting": "Test System: AMES SALMONELLA TYPHIMURIUM, Strain/Indicator: TA1530, Metabolic Activation: NONE, Method: STANDARD PLATE", "value": "inactive; negative"},
      {"measurement": "mutagenic call", "setting": "Test System: AMES SALMONELLA TYPHIMURIUM, Strain/Indicator: TA1530, Metabolic Activation: RAT, LIVER, S-9, 3-METHYLCHOLANTHRENE, Method: STANDARD PLATE", "value": "inactive; negative"},
      {"measurement": "mutagenic call", "setting": "Test System: AMES SALMONELLA TYPHIMURIUM, Strain/Indicator: TA1530, Metabolic Activation: RAT, LIVER, S-9, AROCLOR 1254, Method: STANDARD PLATE", "value": "inactive; negative"},
      {"measurement": "mutagenic call", "setting": "Test System: AMES SALMONELLA TYPHIMURIUM, Strain/Indicator: TA1530, Metabolic Activation: RAT, LIVER, S-9, PHENOBARBITONE, Method: STANDARD PLATE", "value": "inactive; negative"},
      {"measurement": "mutagenic call", "setting": "[3]", "value": "inactive; negative"},
      {"measurement": "mutagenic call", "setting": "Test System: AMES SALMONELLA TYPHIMURIUM, Strain/Indicator: TA1537, Metabolic Activation: RAT, LIVER, S-9, 3-METHYLCHOLANTHRENE, Method: STANDARD PLATE", "value": "inactive; negative"},
      {"measurement": "mutagenic call", "setting": "Test System: AMES SALMONELLA TYPHIMURIUM, Strain/Indicator: TA1537, Metabolic Activation: RAT, LIVER, S-9, AROCLOR 1254, Method: STANDARD PLATE", "value": "inactive; negative"},
      {"measurement": "mutagenic call", "setting": "Test System: AMES SALMONELLA TYPHIMURIUM, Strain/Indicator: TA1537, Metabolic Activation: RAT, LIVER, S-9, PHENOBARBITONE, Method: STANDARD PLATE", "value": "inactive; negative"},
      {"measurement": "mutagenic call", "setting": "Test System: AMES SALMONELLA TYPHIMURIUM, Strain/Indicator: TA1538, Metabolic Activation: NONE, Method: STANDARD PLATE", "value": "inactive; negative"},
      {"measurement": "mutagenic call", "setting": "Test System: AMES SALMONELLA TYPHIMURIUM, Strain/Indicator: TA1538, Metabolic Activation: RAT, LIVER, S-9, 3-METHYLCHOLANTHRENE, Method: STANDARD PLATE", "value": "inactive; negative"},
      {"measurement": "mutagenic call", "setting": "Test System: AMES SALMONELLA TYPHIMURIUM, Strain/Indicator: TA1538, Metabolic Activation: RAT, LIVER, S-9, AROCLOR 1254, Method: STANDARD PLATE", "value": "inactive; negative"},
      {"measurement": "mutagenic call", "setting": "Test System: AMES SALMONELLA TYPHIMURIUM, Strain/Indicator: TA1538, Metabolic Activation: RAT, LIVER, S-9, PHENOBARBITONE, Method: STANDARD PLATE", "value": "inactive; negative"}
    ]},
    {"compound": "CCCCCCCC(=O)Nc1snc2ccccc12", "values": [
      {"measurement": "mutagenic call", "setting": "[2]", "value": "inactive; negative"},
      {"measurement": "mutagenic call", "setting": "Test System: AMES SALMONELLA TYPHIMURIUM, Strain/Indicator: TA100, Metabolic Activation: S-9, Method: STANDARD PLATE", "value": "inactive; negative"},
      {"measurement": "mutagenic call", "setting": "[3]", "value": "inactive; negative"},
      {"measurement": "mutagenic call", "setting": "Test System: AMES SALMONELLA TYPHIMURIUM, Strain/Indicator: TA1537, Metabolic Activation: S-9, Method: STANDARD PLATE", "value": "inactive; negative"}
    ]},
    {"compound": "CCNc1cc(NC(C)=O)c(N=Nc2c(Cl)cc([N+](=O)[O-])cc2[N+](=O)[O-])cc1OC", "values": [
      {"measurement": "mutagenic call", "setting": "End Point: IN VITRO CHROMOSOMAL ABERRATIONS, Test System: CHL CELLS, Metabolic Activation: NONE", "value": "inactive; negative; precipitation of test chemical observed above 0.01 mg/ml; also recorded: active; positive (ploidy changes); precipitation of test chemical observed above 0.01 mg"}
    ]},
    {"compound": "O=C1c2c(ccc3ccccc23)-c2cccc3cccc1c23", "values": [
      {"measurement": "mutagenic call", "setting": "[1]", "value": "inactive; negative"},
      {"measurement": "mutagenic call", "setting": "[2]", "value": "inactive; negative"}
    ]}
  ]
}
